From patent publication US20060134001A1, “Conjugated infrared fluorescent substances for detection of cell death” (priority 2002, published 2006)
Each block holds one compound with its values, some of them ahead of it.

How the values were obtained:
[1] = human annexin V; read-out: affinity (kd) for phosphatidylserine (PS); cited from earlier work
[2] = cited from earlier work
[3] = system: apoptotic and/or necrotic cells; assay: Near-infrared fluorescence imaging of labeled annexin V in rat heart after LAD artery ischemia/reperfusion; type: in vivo; conditions: 25 μg injected, imaged 24 hours after 20 minutes LAD ligation and reperfusion
Procedure: A branch of the left anterior descending (LAD) artery of the rat heart was ligated with a silk suture. During ligation, the aorta was cross-clamped and 10 μm red fluorescent microbeads were injected into the ventricle. […] After 20 minutes of ligation, the suture was removed, and the heart was permitted to re-perfuse.
The otherwise invisible near-infrared fluorescence from indocyanine green has been pseudo-colored white prior to superimposition on the color video (anatomic) image. […] In pseudo-colored magenta are the red fluorescent microbeads injected during initial ischemia. This area was well perfused during ischemia. The area of the heart internal to this “ring” of perfusion is termed the “area at risk”, i.e., the area of myocardium that had no blood flow during LAD ligation. The area of avascularity/infarct identified with indocyanine green is contained within the area at risk. Finally, the near-infrared fluorescence signal from injection of 25 μg of human annexin V covalently conjugated with IRDye78 (a near-infrared fluorophore) is shown pseudo-colored in green. The green areas, thus, represent apoptotic and/or necrotic cells, i.e., those areas within the area at risk that have actually succumbed to the ischemia. […] Presumably, this area was supplied by either diffusion or smaller collateral vessels fed by the well-perfused area.

[4] = Solubility of dye in blood; conditions: small molecule form
vasculature of the heart = assay: Near-infrared fluorescence imaging of heart vasculature with vascular contrast agent after LAD artery ischemia; type: in vivo; conditions: rat, 12.5 nmol injected, 24 hours after LAD artery ischemia; compared with 2,3,5-triphenyltetrazolium chloride staining
Text: The otherwise invisible near-infrared fluorescence from indocyanine green has been pseudo-colored white prior to superimposition on the color video (anatomic) image. […] In pseudo-colored magenta are the red fluorescent microbeads injected during initial ischemia. […] The area of the heart internal to this “ring” of perfusion is termed the “area at risk”, i.e., the area of myocardium that had no blood flow during LAD ligation. […] Finally, the near-infrared fluorescence signal from injection of 25 μg of human annexin V covalently conjugated with IRDye78 (a near-infrared fluorophore) is shown pseudo-colored in green.

[5] = In vivo early half-life of dye
[6] = system: mitochondria and/or endoplasmic reticulum; assay: Subcellular partitioning of dye; type: cell-based; conditions: concentration-dependent

Compound: Human annexin V: human annexin V, molecular weight 36 kd, binds phosphatidylserine; targeting moiety
- Kd [1]: 7 nM
- dose at which pharmacological effects (anti-coagulant effects) begin ([2]; in vivo): greater than 300 μg protein/kg
- pharmacologic or toxic side effects at tracer doses ([2]; tracer doses, e.g. 10 μg protein/kg to 50 μg protein/kg, animal or human subjects): no reported pharmacologic or toxic side effects

Compound: human annexin V covalently conjugated with IRDye78: annexin V reacted under aqueous conditions with the N-hydroxysuccinimide ester of IRDye78, a near-infrared fluorophore
- near-infrared fluorescence signal localisation in ischemic heart [3]: several areas of infarcted myocardium within the area at risk

- solubility in blood [4]: somewhat less soluble in blood
- in vivo early half-life [5]: shorter half-life
Compound: CC1(C)C(/C=C/C=C/C=C/C=C2\N(CCCCS(=O)(=O)O)c3ccc4ccccc4c3C2(C)C)=[N+](CCCCS(=O)(=O)[O-])c2ccc3ccccc3c21 [Indocyanine green, indocyanine green]
- vascular staining of ischemic heart (vasculature of the heart): reveals an area of avascularity that corresponds to infarcted tissue

Compound: CN1C(=CC=C2CCCC(C=CC3=[N+](C)c4ccccc4C3(C)C)=C2Cl)C(C)(C)c2ccccc21.[O-][Cl+3]([O-])([O-])[O-] [IR-786]
- partitioning into organelles [6]: partitions efficiently into mitochondria and/or endoplasmic reticulum
